One block for each compound: values may come before it.
System: 388556-164-R-J1-PDC complex spheroid viability
Experiment: Anticancer human tumor 388556-164-R-J1-PDC patient-derived colon adenocarcinoma cell line growth inhibition [RAS]
Settings: for IC50: curve of first compound; for viability, T/C: stronger effect = lower value
Method in brief: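 Agents were tested in combination matrices in half-log decrements from a top concentration at or near clinical Cmax (10 microM if undetermined). Targets were multi-cell spheroids of tumour lines plus HUVEC and MSC stromal cells.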

[1] = second compound 0.000949 µM, first compound 0.00316 µM
[2] = second compound 0.000949 µM, first compound 0.01 µM
[3] = second compound 0.000949 µM, first compound 0.0316 µM
[4] = second compound 0.000949 µM, first compound 0.1 µM
[5] = second compound 0.000949 µM, first compound 0.316 µM
[6] = second compound 0.000949 µM, first compound 1 µM
[7] = second compound 0.003 µM, first compound 0.00316 µM
[8] = second compound 0.003 µM, first compound 0.01 µM
[9] = second compound 0.003 µM, first compound 0.0316 µM
[10] = second compound 0.003 µM, first compound 0.1 µM
[11] = second compound 0.003 µM, first compound 0.316 µM
[12] = second compound 0.003 µM, first compound 1 µM
[13] = second compound 0.00949 µM, first compound 0.00316 µM
[14] = second compound 0.00949 µM, first compound 0.01 µM
[15] = second compound 0.00949 µM, first compound 0.0316 µM
[16] = second compound 0.00949 µM, first compound 0.1 µM
[17] = second compound 0.00949 µM, first compound 0.316 µM
[18] = second compound 0.00949 µM, first compound 1 µM
[19] = second compound 0.03 µM, first compound 0.00316 µM
[20] = second compound 0.03 µM, first compound 0.01 µM
[21] = second compound 0.03 µM, first compound 0.0316 µM
[22] = second compound 0.03 µM, first compound 0.1 µM
[23] = second compound 0.03 µM, first compound 0.316 µM
[24] = second compound 0.03 µM, first compound 1 µM
[25] = second compound 0.0949 µM, first compound 0.00316 µM
[26] = second compound 0.0949 µM, first compound 0.01 µM
[27] = second compound 0.0949 µM, first compound 0.0316 µM
[28] = second compound 0.0949 µM, first compound 0.1 µM
[29] = second compound 0.0949 µM, first compound 0.316 µM
[30] = second compound 0.0949 µM, first compound 1 µM
[31] = second compound 0.3 µM, first compound 0.00316 µM
[32] = second compound 0.3 µM, first compound 0.01 µM
[33] = second compound 0.3 µM, first compound 0.0316 µM
[34] = second compound 0.3 µM, first compound 0.1 µM
[35] = second compound 0.3 µM, first compound 0.316 µM
[36] = second compound 0.3 µM, first compound 1 µM
[37] = second compound 0.000949 µM, first compound 0.000949 µM
[38] = second compound 0.000949 µM, first compound 0.003 µM
[39] = second compound 0.000949 µM, first compound 0.00949 µM
[40] = second compound 0.000949 µM, first compound 0.03 µM
[41] = second compound 0.000949 µM, first compound 0.0949 µM
[42] = second compound 0.000949 µM, first compound 0.3 µM
[43] = second compound 0.003 µM, first compound 0.000949 µM
[44] = second compound 0.003 µM, first compound 0.003 µM
[45] = second compound 0.003 µM, first compound 0.00949 µM
[46] = second compound 0.003 µM, first compound 0.03 µM
[47] = second compound 0.003 µM, first compound 0.0949 µM
[48] = second compound 0.003 µM, first compound 0.3 µM
[49] = second compound 0.00949 µM, first compound 0.000949 µM
[50] = second compound 0.00949 µM, first compound 0.003 µM
[51] = second compound 0.00949 µM, first compound 0.00949 µM
[52] = second compound 0.00949 µM, first compound 0.03 µM
[53] = second compound 0.00949 µM, first compound 0.0949 µM
[54] = second compound 0.00949 µM, first compound 0.3 µM
[55] = second compound 0.03 µM, first compound 0.000949 µM
[56] = second compound 0.03 µM, first compound 0.003 µM
[57] = second compound 0.03 µM, first compound 0.00949 µM
[58] = second compound 0.03 µM, first compound 0.03 µM
[59] = second compound 0.03 µM, first compound 0.0949 µM
[60] = second compound 0.03 µM, first compound 0.3 µM
[61] = second compound 0.0949 µM, first compound 0.000949 µM
[62] = second compound 0.0949 µM, first compound 0.003 µM
[63] = second compound 0.0949 µM, first compound 0.00949 µM
[64] = second compound 0.0949 µM, first compound 0.03 µM
[65] = second compound 0.0949 µM, first compound 0.0949 µM
[66] = second compound 0.0949 µM, first compound 0.3 µM
[67] = second compound 0.3 µM, first compound 0.000949 µM
[68] = second compound 0.3 µM, first compound 0.003 µM
[69] = second compound 0.3 µM, first compound 0.00949 µM
[70] = second compound 0.3 µM, first compound 0.03 µM
[71] = second compound 0.3 µM, first compound 0.0949 µM
[72] = second compound 0.3 µM, first compound 0.3 µM
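Note: spheroids exposed to compound for 7 days before readout.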
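Throughout, for viability, T/C: 100% = DMSO vehicle control luminescence.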

IC50 (second compound 0.000949 µM): > 1000 nM | IC50 (second compound 0.003 µM): > 1000 nM | IC50 (second compound 0.00949 µM): > 1000 nM | IC50 (second compound 0.03 µM): > 1000 nM | IC50 (second compound 0.0949 µM): < 3.16 nM | IC50 (second compound 0.3 µM): < 3.16 nM
SMILES: C=CC(=O)N1CCN(c2nc(OCC3CCCN3C)nc3c(F)c(-c4nc(N)cc(C)c4C(F)(F)F)c(Cl)cc23)C(C)C1 (stereo not drawn) + CCn1c(-c2cc(N3CCN(C)CC3)cnc2C(C)OC)c2c3cc(ccc31)-c1csc(n1)CC(NC(=O)C1CC1C)C(=O)N1CCCC(N1)C(=O)OCC(C)(C)C2
viability, T/C [1]: 90.9% | viability, T/C [2]: 97.7% | viability, T/C [3]: 86.2% | viability, T/C [4]: 91.5% | viability, T/C [5]: 92.1% | viability, T/C [6]: 93.5% | viability, T/C [7]: 94.8% | viability, T/C [8]: 83.5% | viability, T/C [9]: 92.7% | viability, T/C [10]: 86.9% | viability, T/C [11]: 86.5% | viability, T/C [12]: 84.2% | viability, T/C [13]: 87% | viability, T/C [14]: 79.5% | viability, T/C [15]: 78.8% | viability, T/C [16]: 70.4% | viability, T/C [17]: 85% | viability, T/C [18]: 65.9% | viability, T/C [19]: 63.6% | viability, T/C [20]: 68.7% | viability, T/C [21]: 62.2% | viability, T/C [22]: 62.3% | viability, T/C [23]: 63.3% | viability, T/C [24]: 62% | viability, T/C [25]: 43.2% | viability, T/C [26]: 39.9% | viability, T/C [27]: 43.1% | viability, T/C [28]: 49.5% | viability, T/C [29]: 52.8% | viability, T/C [30]: 45.6% | viability, T/C [31]: 33.2% | viability, T/C [32]: 31% | viability, T/C [33]: 30.9% | viability, T/C [34]: 34.9% | viability, T/C [35]: 38% | viability, T/C [36]: 32%

IC50 (second compound 0.000949 µM): > 300 nM | IC50 (second compound 0.003 µM): > 300 nM | IC50 (second compound 0.00949 µM): > 300 nM | IC50 (second compound 0.03 µM): > 300 nM | IC50 (second compound 0.0949 µM): 3.41 nM | IC50 (second compound 0.3 µM): < 0.949 nM
SMILES: CC1(C)CCC(Nc2ncc(C(F)(F)F)c(-c3c[nH]c4c(P(C)(C)=O)c(C#N)ccc34)n2)CN1 (stereo not drawn) + CCn1c(-c2cc(N3CCN(C)CC3)cnc2C(C)OC)c2c3cc(ccc31)-c1csc(n1)CC(NC(=O)C1CC1C)C(=O)N1CCCC(N1)C(=O)OCC(C)(C)C2
viability, T/C [37]: 104% | viability, T/C [38]: 87.9% | viability, T/C [39]: 98.1% | viability, T/C [40]: 78.5% | viability, T/C [41]: 83.8% | viability, T/C [42]: 84.9% | viability, T/C [43]: 101% | viability, T/C [44]: 86.9% | viability, T/C [45]: 82.5% | viability, T/C [46]: 86.8% | viability, T/C [47]: 85.3% | viability, T/C [48]: 77.1% | viability, T/C [49]: 84.2% | viability, T/C [50]: 73.3% | viability, T/C [51]: 75.8% | viability, T/C [52]: 72.5% | viability, T/C [53]: 74.6% | viability, T/C [54]: 68.9% | viability, T/C [55]: 77.4% | viability, T/C [56]: 70% | viability, T/C [57]: 64.5% | viability, T/C [58]: 67.9% | viability, T/C [59]: 71.6% | viability, T/C [60]: 58.2% | viability, T/C [61]: 55.5% | viability, T/C [62]: 47.1% | viability, T/C [63]: 47.9% | viability, T/C [64]: 44.1% | viability, T/C [65]: 48.8% | viability, T/C [66]: 46.1% | viability, T/C [67]: 33% | viability, T/C [68]: 34.5% | viability, T/C [69]: 33.1% | viability, T/C [70]: 35.9% | viability, T/C [71]: 41.5% | viability, T/C [72]: 37.4%

IC50 (second compound 0.000949 µM): 46.6 nM | IC50 (second compound 0.003 µM): 28.1 nM | IC50 (second compound 0.00949 µM): 19.6 nM | IC50 (second compound 0.03 µM): 7.33 nM | IC50 (second compound 0.0949 µM): < 0.949 nM | IC50 (second compound 0.3 µM): < 0.949 nM
SMILES: CCc1c2c(nc3ccc(O)cc13)-c1cc3c(c(=O)n1C2)COC(=O)[C@]3(O)CC + CCn1c(-c2cc(N3CCN(C)CC3)cnc2C(C)OC)c2c3cc(ccc31)-c1csc(n1)CC(NC(=O)C1CC1C)C(=O)N1CCCC(N1)C(=O)OCC(C)(C)C2
viability, T/C [37]: 90.3% | viability, T/C [38]: 89.5% | viability, T/C [39]: 66.3% | viability, T/C [40]: 56% | viability, T/C [41]: 42.1% | viability, T/C [42]: 23.5% | viability, T/C [43]: 89.9% | viability, T/C [44]: 83.6% | viability, T/C [45]: 67.5% | viability, T/C [46]: 46.3% | viability, T/C [47]: 36.4% | viability, T/C [48]: 21.8% | viability, T/C [49]: 82.2% | viability, T/C [50]: 78.4% | viability, T/C [51]: 55.7% | viability, T/C [52]: 41.8% | viability, T/C [53]: 36.5% | viability, T/C [54]: 18.7% | viability, T/C [55]: 58.2% | viability, T/C [56]: 55.5% | viability, T/C [57]: 50.5% | viability, T/C [58]: 37.8% | viability, T/C [59]: 30.2% | viability, T/C [60]: 16.6% | viability, T/C [61]: 44.3% | viability, T/C [62]: 39.1% | viability, T/C [63]: 48.9% | viability, T/C [64]: 30.1% | viability, T/C [65]: 25.9% | viability, T/C [66]: 14.3% | viability, T/C [67]: 32.4% | viability, T/C [68]: 31.5% | viability, T/C [69]: 28.2% | viability, T/C [70]: 30.1% | viability, T/C [71]: 21.2% | viability, T/C [72]: 11.5%

IC50 (second compound 0.000949 µM): > 1000 nM | IC50 (second compound 0.003 µM): > 1000 nM | IC50 (second compound 0.00949 µM): > 1000 nM | IC50 (second compound 0.03 µM): 974 nM | IC50 (second compound 0.0949 µM): 864 nM | IC50 (second compound 0.3 µM): 849 nM
SMILES: C=CC(=O)Nc1cc(Nc2nccc(-c3cn(C)c4ccccc34)n2)c(OC)cc1N(C)CCN(C)C + CCn1c(-c2cccnc2C(C)OC)c2c3cc(ccc31)N1CCOC(CC(NC(=O)C(C(C)C)N(C)C(=O)C3(F)CCN(C(=O)C#CC(C)(C)N(C)C)CC3)C(=O)N3CCCC(N3)C(=O)OCC(C)(C)C2)C1
viability, T/C [1]: 98.7% | viability, T/C [2]: 93.3% | viability, T/C [3]: 91.5% | viability, T/C [4]: 88.5% | viability, T/C [5]: 75.2% | viability, T/C [6]: 53.4% | viability, T/C [7]: 108% | viability, T/C [8]: 108% | viability, T/C [9]: 101% | viability, T/C [10]: 83.6% | viability, T/C [11]: 73.8% | viability, T/C [12]: 53.4% | viability, T/C [13]: 105% | viability, T/C [14]: 107% | viability, T/C [15]: 90.9% | viability, T/C [16]: 80.2% | viability, T/C [17]: 82.3% | viability, T/C [18]: 54.1% | viability, T/C [19]: 107% | viability, T/C [20]: 96.2% | viability, T/C [21]: 101% | viability, T/C [22]: 88.1% | viability, T/C [23]: 70.6% | viability, T/C [24]: 49.5% | viability, T/C [25]: 105% | viability, T/C [26]: 108% | viability, T/C [27]: 95.9% | viability, T/C [28]: 93.9% | viability, T/C [29]: 75% | viability, T/C [30]: 46% | viability, T/C [31]: 98.5% | viability, T/C [32]: 89.3% | viability, T/C [33]: 89.5% | viability, T/C [34]: 81.5% | viability, T/C [35]: 69.4% | viability, T/C [36]: 46.3%
